In patent US10562902B2, “IRAK4 inhibitor and use thereof” (BEIJING HANMI PHARMACEUTICAL CO., LTD., priority 2015, dated 2020):
pIC50: −log10 of the molar value.

Target: IRAK4 kinase (Homo sapiens (Human), UniProt Q9NWZ3)
Test: IRAK4 kinase activity inhibition assay
Assay type: biochemical
Conditions: ADP-Glo kinase assay, 10 μM ATP, MBP substrate
Method: IRAK4 kinase (purchased from Life Technologies, Cat. No.: PR5612U) was diluted to 2 folds of the final concentration (the final concentration is […]) with reaction buffer (40 mM Tris-HC1, pH 7.5; 20 mM MgCl2; 0.1 mg/mL BSA; 1 mM DTT), and added to a 384-well plate at 5 μL/well. The test drugs were 10-fold serial diluted from 10 μM to set six concentration points and added to the test wells of the 384-well plate at 2.5 μL/well. After incubation for 10 min at 25° C., 10 μM of ATP and 0.1 μg/μL of an enzyme reaction substrate, myelin basic protein MBP (purchased from Signal Chem, Cat. No.: M42-51N) were added at 2.5 μL/well, and reacted at 25° C. for 60 minutes. After the reaction was completed, the kinase activity assay was performed using the ADP-Glo™ kinase assay kit (purchased from Promega, Cat. No.: V9102) according to the manufacture's instruction, i.e., 10 μL of ADP-Glo reaction reagent was first added and reacted at 25° C. for 40 minutes, 10 μL of the reaction mixture was taken and mixed with 10 μL of ADP-Glo detection reagent, and reacted at 25° C. for 30 minutes. The kinase activity was then detected, and the IC50 values of the test drugs were calculated.

Sequence of IRAK4 kinase (Q9NWZ3 whole entry): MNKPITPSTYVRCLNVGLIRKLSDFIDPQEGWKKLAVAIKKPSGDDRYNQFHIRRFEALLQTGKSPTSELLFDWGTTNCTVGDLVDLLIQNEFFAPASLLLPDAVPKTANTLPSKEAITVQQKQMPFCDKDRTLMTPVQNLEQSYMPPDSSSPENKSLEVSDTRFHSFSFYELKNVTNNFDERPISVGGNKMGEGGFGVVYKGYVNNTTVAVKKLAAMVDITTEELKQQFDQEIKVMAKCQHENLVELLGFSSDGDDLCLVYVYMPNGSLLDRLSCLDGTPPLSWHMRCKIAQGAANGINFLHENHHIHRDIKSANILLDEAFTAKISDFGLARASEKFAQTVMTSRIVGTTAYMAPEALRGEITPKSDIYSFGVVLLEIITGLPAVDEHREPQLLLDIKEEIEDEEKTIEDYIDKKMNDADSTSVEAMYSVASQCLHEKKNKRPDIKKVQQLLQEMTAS

Row | pIC50 | SMILES
1 | 6.00 to 7.00 | Cc1cc(Nc2nc(NC3CCCC3)c3c(ccn3-c3cnn(C)c3)n2)sn1 [Example 17]
2 | ≥ 7.00 | CNC(=O)c1cc(Nc2nc(O[C@H]3CCOC3)c3c(ccn3-c3cnn(C)c3)n2)sn1 [Example 166]
3 | 6.00 to 7.00 | Cn1cc(-n2ccc3nc(Nc4cnn(-c5ccccc5)c4)nc(O[C@H]4CCOC4)c32)cn1 [Example 112]
4 | 6.00 to 7.00 | Cc1cc(Nc2nc(OC3CCC(O)CC3)c3c(ccn3-c3cnn(C)c3)n2)sn1 (stereo not shown) [Example 67]
5 | 6.00 to 7.00 | CC(C)Nc1nc(Nc2cnn(C3CCOCC3)c2)nc2ccn(-c3cnn(C)c3)c12 [Example 47]
6 | ≥ 7.00 | COCCOc1nc(Nc2cc(C)ns2)nc2ccn(-c3cnn(C)c3)c12 [Example 55]
7 | 6.00 to 7.00 | CNC(=O)CCCNc1nc(Nc2cc(C)ns2)nc2ccn(-c3cnn(C)c3)c12 [Example 7]
8 | 6.00 to 7.00 | COc1cc(-n2ccc3nc(Nc4cc(C)ns4)nc(NC(C)C)c32)ccn1 [Example 42]
9 | ≥ 7.00 | Cc1cc(Nc2nc(O[C@@H]3CCOC3)c3c(ccn3-c3cnn(C)c3)n2)sn1 [Example 65]
10 | 6.00 to 7.00 | Cc1cc(Nc2nc(NC3CCC(=O)CC3)c3c(ccn3-c3cnn(C)c3)n2)sn1 [Example 23]
11 | 6.00 to 7.00 | Cc1cc(Nc2nc(NC3CCC3)c3c(ccn3-c3cnn(C)c3)n2)sn1 [Example 12]
12 | ≥ 7.00 | Cn1cc(-n2ccc3nc(Nc4cnn(-c5ccncc5)c4)nc(O[C@H]4CCOC4)c32)cn1 [Example 113]
13 | 6.00 to 7.00 | CC(=O)N[C@H]1CC[C@H](Nc2nc(Nc3cc(C)ns3)nc3ccn(-c4cnn(C)c4)c23)CC1 [Example 27]
14 | 6.00 to 7.00 | Cn1cc(-n2ccc3nc(Nc4cnn(C5CCCCC5)c4)nc(O[C@H]4CCOC4)c32)cn1 [Example 109]
15 | ≥ 7.00 | CNC(=O)c1cc(Nc2nc(OC3CCOCC3)c3c(ccn3-c3cnn(C)c3)n2)cs1 [Example 172]
16 | ≥ 7.00 | CN1CCC(CNC(=O)c2csc(Nc3nc(O[C@H]4CCOC4)c4c(ccn4-c4cnn(C)c4)n3)c2)CC1 [Example 141]
17 | 6.00 to 7.00 | Cn1cc(-n2ccc3nc(Nc4cc(C(=O)N5CCSCC5)cs4)nc(O[C@H]4CCOC4)c32)cn1 [Example 153]
18 | 6.00 to 7.00 | Cc1cc(Nc2nc(NCCO)c3c(ccn3-c3cnn(C)c3)n2)sn1 [Example 3]
19 | 6.00 to 7.00 | CN(C)C(=O)c1csc(Nc2nc(NC3CCOCC3)c3c(ccn3-c3cnn(C)c3)n2)c1 [Example 50]
20 | ≥ 7.00 | CCNC(=O)c1csc(Nc2nc(OC3CCOCC3)c3c(ccn3-c3cnn(C)c3)n2)c1 [Example 168]
21 | ≥ 7.00 | Cn1cc(-n2ccc3nc(Nc4csc(C(=O)NCCF)c4)nc(O[C@H]4CCOC4)c32)cn1 [Example 161]
22 | 6.00 to 7.00 | Cn1cc(-n2ccc3nc(Nc4cc(C(=O)NC5CCCCC5)cs4)nc(O[C@H]4CCOC4)c32)cn1 [Example 144]
23 | 6.00 to 7.00 | CNC(=O)CCNc1nc(Nc2cc(C)ns2)nc2ccn(-c3cnn(C)c3)c12 [Example 6]
24 | ≥ 7.00 | Cc1cc(Nc2nc(N[C@H]3C[C@@](C)(O)C3)c3c(ccn3-c3cnn(C)c3)n2)sn1 [Example 14]

Row | pIC50 | SMILES
25 | 6.00 to 7.00 | Cc1cc(Nc2nc(NC3CCOCC3)c3c(ccn3-c3ccncc3)n2)sn1 [Example 40]
26 | ≥ 7.00 | CCNC(=O)c1cc(Nc2nc(OCCOC)c3c(ccn3-c3cnn(C)c3)n2)cs1 [Example 156]
27 | ≥ 7.00 | Cc1cc(Nc2nc(N[C@H]3CC[C@H](O)CC3)c3c(ccn3-c3cccnc3)n2)sn1 [Example 38]
28 | ≥ 7.00 | Cn1cc(-n2ccc3nc(Nc4cc(C(=O)NCC(F)F)cs4)nc(OC4CCOCC4)c32)cn1 [Example 170]
29 | 6.00 to 7.00 | Cc1cc(Nc2nc(NC(C)C)c3c(ccn3-c3cnn(C4CCOCC4)c3)n2)sn1 [Example 32]
30 | 6.00 to 7.00 | Cc1cc(Nc2nc(OC3CCOCC3)c3c(ccn3-c3ccoc3)n2)sn1 [Example 88]
31 | ≥ 7.00 | Cc1cc(Nc2nc(NC3CC(O)C3)c3c(ccn3-c3cnn(C)c3)n2)sn1 (stereo not shown) [Example 13]
32 | 6.00 to 7.00 | Cc1cc(Nc2nc(N[C@H]3CC[C@H](O)CC3)c3c(ccn3-c3ccccc3)n2)sn1 [Example 33]
33 | ≥ 7.00 | CN(C)C(=O)c1cc(Nc2nc(O[C@H]3CCOC3)c3c(ccn3-c3cnn(C)c3)n2)cs1 [Example 163]
34 | ≥ 7.00 | CN(C)C(=O)c1csc(Nc2nc(OC3CCOCC3)c3c(ccn3-c3cnn(C)c3)n2)c1 [Example 171]
35 | ≥ 7.00 | CNC(=O)c1cc(Nc2nc(OCCOC)c3c(ccn3-c3cnn(C)c3)n2)cs1 [Example 155]
36 | ≥ 7.00 | Cc1cc(Nc2nc(N[C@H]3CC[C@@H](O)C3)c3c(ccn3-c3cnn(C)c3)n2)sn1 [Example 18]
37 | 6.00 to 7.00 | CC(C)Nc1nc(Nc2cnn(C3CCCCC3)c2)nc2ccn(-c3cnn(C)c3)c12 [Example 45, N^2-(1-cyclohexyl-1H-pyrazol-4-yl)-N^4-isopropyl-5-(1-methyl-1H-pyrazol-4-yl)-5H-pyrrolo[3,2-d]pyrimidin-2,4-diamine]
38 | ≥ 7.00 | Cn1cc(-n2ccc3nc(Nc4cc(C(=O)NC5CCOCC5)cs4)nc(O[C@H]4CCOC4)c32)cn1 [Example 148]
39 | 6.00 to 7.00 | Cn1cc(-n2ccc3nc(Nc4cc(C#N)cs4)nc(O[C@H]4CCOC4)c32)cn1 [Example 80]
40 | 5.00 to 6.00 | Cc1cc(Nc2nc(NC(C)C)c3c(ccn3-c3cccc(S(C)(=O)=O)c3)n2)sn1 [Example 36]
41 | 6.00 to 7.00 | Cn1cc(-n2ccc3nc(Nc4ccc(C(=O)N5CCOCC5)cc4)nc(O[C@H]4CCOC4)c32)cn1 [Example 119]
42 | 6.00 to 7.00 | Cc1cc(Nc2nc(OC3CCOCC3)c3c(ccn3-c3cccnc3)n2)sn1 [Example 98]
43 | 6.00 to 7.00 | CC(=O)N1CCCC(Oc2nc(Nc3cc(C)ns3)nc3ccn(-c4cnn(C)c4)c23)C1 (stereo not shown) [Example 70]
44 | 6.00 to 7.00 | Cc1cc(Nc2nc(OCC3CCOC3)c3c(ccn3-c3cnn(C)c3)n2)sn1 (stereo not shown) [Example 58]
45 | 5.00 to 6.00 | COc1ccccc1-n1ccc2nc(Nc3cc(C)ns3)nc(OC3CCOCC3)c21 [Example 93]
46 | ≥ 7.00 | CCNC(=O)c1cc(Nc2nc(OC3CCOCC3)c3c(ccn3-c3cnn(C)c3)n2)cs1 [Example 173]
47 | ≥ 7.00 | Cn1cc(-n2ccc3nc(Nc4cc(C(=O)NCC(F)(F)F)cs4)nc(O[C@H]4CCOC4)c32)cn1 [Example 138]
48 | 6.00 to 7.00 | Cn1cc(-n2ccc3nc(Nc4ccsc4)nc(O[C@H]4CCOC4)c32)cn1 [Example 81]

Row | pIC50 | SMILES
49 | 6.00 to 7.00 | Cc1cc(Nc2nc(N[C@H]3CC[C@H](O)CC3)c3c(ccn3-c3ccc(F)cc3)n2)sn1 [Example 34]
50 | 6.00 to 7.00 | Cn1cc(-n2ccc3nc(Nc4ccc5cn[nH]c5c4)nc(O[C@H]4CCOC4)c32)cn1 [Example 124]
51 | 6.00 to 7.00 | CCCNC(=O)c1csc(Nc2nc(O[C@H]3CCOC3)c3c(ccn3-c3cnn(C)c3)n2)c1 [Example 135]
52 | ≥ 7.00 | Cc1cc(Nc2nc(N[C@H]3CC[C@H](O)CC3)c3c(ccn3-c3cnn(C)c3)n2)sn1 [Example 1, trans-4-[2-(3-methylisothiazol-5-ylamino)-5-(1-methyl-1H-pyrazol-4-yl)-5H-pyrrolo[3,2-d]pyrimidin-4-ylamino]cyclohexanol]
53 | ≥ 7.00 | CCNC(=O)c1csc(Nc2nc(OCCOC)c3c(ccn3-c3cnn(C)c3)n2)c1 [Example 130]
54 | ≥ 7.00 | Cc1cc(Nc2nc(OC3CC(N4CCCCC4)C3)c3c(ccn3-c3cnn(C)c3)n2)sn1 (stereo not shown) [Example 62]
55 | ≥ 7.00 | Cc1cc(Nc2nc(O[C@H]3CCOC3)c3c(ccn3-c3ccoc3)n2)sn1 [Example 87]
56 | 6.00 to 7.00 | Cn1cc(-n2ccc3nc(Nc4cc(C(=O)NCc5cccs5)cs4)nc(O[C@H]4CCOC4)c32)cn1 [Example 142]
57 | 6.00 to 7.00 | COCC(C)Oc1nc(Nc2cc(C)ns2)nc2ccn(-c3cnn(C)c3)c12 (stereo not shown) [Example 56]
58 | 5.00 to 6.00 | Cn1cc(-n2ccc3nc(Nc4cccnc4)nc(O[C@H]4CCOC4)c32)cn1 [Example 117]
59 | 6.00 to 7.00 | Cc1cc(Nc2nc(N[C@H]3C[C@H](N4CCCCC4)C3)c3c(ccn3-c3cnn(C)c3)n2)sn1 [Example 16]
60 | 6.00 to 7.00 | Cn1cc(-n2ccc3nc(Nc4ccc5c(c4)C(=O)NC5)nc(O[C@H]4CCOC4)c32)cn1 [Example 122]
61 | ≥ 7.00 | Cn1cc(-n2ccc3nc(Nc4cnn(CCO)c4)nc(O[C@H]4CCOC4)c32)cn1 [Example 108]
62 | 6.00 to 7.00 | COCCCOc1nc(Nc2cc(C)ns2)nc2ccn(-c3cnn(C)c3)c12 [Example 57]
63 | ≥ 7.00 | Cn1cc(-n2ccc3nc(Nc4cc(C(=O)NCC5CCOCC5)cs4)nc(O[C@H]4CCOC4)c32)cn1 [Example 140]
64 | 6.00 to 7.00 | Cc1cc(Nc2nc(OC3CCNCC3)c3c(ccn3-c3cnn(C)c3)n2)sn1 [Example 71]
65 | ≥ 7.00 | Cc1cc(Nc2nc(N[C@@H]3C[C@H](CO)[C@@H](O)[C@H]3O)c3c(ccn3-c3cnn(C)c3)n2)sn1 [Example 19]
66 | ≥ 7.00 | Cn1cc(-n2ccc3nc(Nc4cc(C(=O)N[C@@H]5CCOC5)cs4)nc(O[C@H]4CCOC4)c32)cn1 [Example 146]
67 | ≥ 7.00 | Cn1cc(-n2ccc3nc(Nc4cccs4)nc(O[C@H]4CCOC4)c32)cn1 [Example 78]
68 | ≥ 7.00 | Cc1cc(Nc2nc(NC(C)C)c3c(ccn3-c3cnn(C)c3)n2)sn1 [Example 2]
69 | ≥ 7.00 | Cn1cc(-n2ccc3nc(Nc4cc(C(=O)N5CCOCC5)cs4)nc(O[C@H]4CCOC4)c32)cn1 [Example 152]
70 | 6.00 to 7.00 | COc1cc(-n2ccc3nc(Nc4cc(C)ns4)nc(OC4CCOCC4)c32)ccn1 [Example 101]
